Experimental data: US6090542A, “Process for inhibiting the transcription of genes” (Boehringer Ingelheim International GmbH, priority 1993, dated 2000)

Experiments:
IkB-α [1] = test: Western blot analysis of IkB-α in HeLa cells after TNF-α stimulation; type: cell-based, human
Method: (§1) The 7OZ/3 cells were treated with 50 E/ml IL-1β (Boehringer Mannheim) or with 15 μg/ml LPS (Sigma). Human HeLa cells were cultivated in DMEM, supplemented with 10%FCS and 1% L-glutamine and treated with 200 E/ml human recombinant TFN-α (genzyme).
As protease inhibitors Z-Ile-Glu(Ot-Bu)-Ala-leucinal (NBIG) and the chemically related substance Z-Leu-leucinal (Cbz-L-L) were used (Z standing for benzyloxycarbonyl).
In the figure the slower migrating form of IkB-α is identified with an asterisk.

NF-KB [2] = test: EMSA of NF-KB activation in HeLa cells after TNF-α stimulation; type: cell-based, human; conditions: HeLa cells, TNF-α stimulation, Cbz-L-L
Method: as §1, with “The methods used in this example for the culture of the 7OZ/3 cells and the production of the cell extracts were implemented as stated in example 1. The” for “The”
The test arrangement in this example corresponded to that of example 4; HeLa cells were cultivated as stated in example 2 and TNF-α was used as inductor for the NF-KB activation. As protease inhibitors Z-Ile-Glu(Ot-Bu)-Ala-leucinal (NBIG) and the chemically related substance Z-Leu-leucinal (Cbz-L-L) were used (Z standing for benzyloxycarbonyl).
a) The electrophoretic mobility shift assays were carried out by using a ^32 P labelled oligonucleotide with a NF-KB binding site on whole cell extracts from HeLa cells. […] The ID50 value for NBIG was approx. 50 μM (FIG. 7B).

NF-KB [3] = test: EMSA of NF-KB DNA binding activity in total cell extracts of stimulated 7OZ/3 cells; type: cell-based, mouse; conditions: PMA treated 7OZ/3 cells, 100 μM PDTC
Method: 7OZ/3 cells (ATCC No. TIB 158) were cultivated in RPMI-1640 medium (Gibco BRL), supplemented by 10% FCS (Gibco BRL) and 50 μM 2-mercaptoethanol. 2 ml aliquots with approx. 2-3×10^6 of suspended cells was treated with 50 ng/ml PMA (Sigma) for various periods. The treatment was interrupted by immediate centrifugation (5 s in an Eppendorf Microfuge) and cooling on ice. The cell pellets were lysed with 60 μl of a high-salt extraction buffer, containing the non-ionic detergent nonidet P-40 (Baeuerle and Baltimore, 1988b). The supernatant of a 15 minute centrifugation at 13.000 rpm in an Eppendorf Microfuge was analysed by Western blotting and EMSA (electrophoretic mobility shift assay). For SDS-PAGE and Western blotting 30 μl aliquots of the extracts were mixed with 15 μl SDS sample buffer (Laemmli, 1970), boiled and subjected to a SDS-PAGE on 12.5% polyacrylamide minigels (Biorad). The proteins were transferred by using a so-called semi-dry blotting device (Biorad; 1 h at 15V/2.5 mA/cm2) from the gels onto IMMOBILON-P-filter (0.45 μm; Millipore). The efficiency of the blot was checked by protein staining of the filters with Ponceau S (Serva). The filters were blocked overnight in a Tris-buffered saline solution, containing 0,1% (v/v) TWEEN-20 (TBST), 5% low-fat milk powder (Nestle) and 1% BSA. The filter was then incubated for one hour at ambient temperature with anti IkB-α IgG in a dialysed eluate of the IkB-α affinity column and diluted by 1:100 in the blocking buffer. After washing for 30 minutes in TBST the filter was incubated in a 1:4000 solution of goat-anti-rabbit IgG/horseradish-peroxidase conjugate (Biorad) in blocking buffer. After washing for 30 minutes in TBST the filter was treated with ECL detecting reagent (Amersham) and exposed (Kodak XR film, less than 1 minute). For EMSA 2 μl aliquots of the extracts were added to a binding mixture, resulting in a final concentration of […], […], pH 7.9, […] dithiothreitol, […] phenylmethylsulfonylfluoride (PMSF), 0.2% NONIDET P-40, 5% FICOLL, 20 μg BSA, 3 μg Poly (dl-dC) and 10.000 cpm (Cerenkov counting method) of a ^32 P marked double-stranded KB-oligonucleotide probe (Gibco BRL). The specificity of the protein DNA complex was confirmed by competition experiments and supershifting with a polyclonal antibody, recognising the C-terminal 100 amino acids of Rel-A (p65). After 20 minutes of incubation on ice the samples were subjected to electrophoresis on native 4% polyacrylamide gels, run in 0.5× TBE. The dried gels were exposed (Kodak XR film, -70° C., overnight).
Cell cultures, extract production, SDS-PAGE and Western blotting were carried out according to example 1. The cells were […] in 25 μm TPCK or TLCK (both from Sigma), and pre-treated in dimethylsulfoxide (DMSO). The control cultures received an equivalent amount of DMSO.
The results of the experiments are shown in FIG. 4: A: Effect of TPCK on the induction by PMA. The cells were treated without (left panel) or in presence of TPCK with PMA for the stipulated periods. The cell extracts were tested for the DNA binding activity of NF-KB using EMSA (top panel) and for the IkB-α protein quantity using Western blotting (bottom panel). The position of the NF-KB-DNA complex in a section of a fluorogram of a native gel is shown by a filled arrowhead. […] B: Effect of TPCK on the activation of NF-KB by IL-1β (I), LPS (L) and PMA (P) in 7OZ/3 cells; in control cells (Co). The cells were treated with TPCK for 10 minutes before stimulation (lanes 6-8) or for an additional 10 minutes after stimulation (lanes 10-12; 30 minutes with IL-1β and PMA or 60 minutes with LPS). The total cell extracts of control cells (lanes 1-4) and cells treated with TPCK (lanes 5-12) were tested for the DNA binding activity of NF-KB using EMSA; a section of a fluorogram of a native gel is shown. […] C: Effect of TLCK on the activation of NF-KB by PMA. […]

PKC = conditions: cited from earlier work
IkB-α [4] = test: Western blotting of IkB-α in extracts of 7OZ/3 cells; type: cell-based, mouse
IL-8 = IL-8 in the cell supernatant of stimulated HeLa cells (ELISA); type: cell-based, human; conditions: 120', stimulus alone (TNF 200 E/ml or PMA 50 ng/ml)
Method: (§2) The principle of the test arrangement corresponded to that of the previous examples.
(§3) The cells were stimulated--with or without 30 minutes of pre-treatment with 100 μmol NBIG--with TNF (200 E/ml) or with PMA (50 ng/ml) and the concentration of IL-6 or IL-8 was measured in the cell supernatant at various intervals using ELISA (British Biotechnology Products Ltd.).

IL-6 = IL-6 in the cell supernatant of stimulated HeLa cells (ELISA); type: cell-based, human; conditions: stimulus alone (TNF 200 E/ml or PMA 50 ng/ml)
Method: as §2, §3

## CC(C)CC(C=O)NC(=O)C(CC(C)C)NC(=O)OCc1ccccc1 [Cbz-L-L, Z-Leu-leucinal]
IkB-α [1]; HeLa cells, TNF-α, 50 μm
  inhibition of IkB-α degradation and accumulation of modified IkB-α: does not show these effects
NF-KB [2]
  prevention of NF-KB-DNA complex formation: did not occur

## S=C(S)N1CCCC1 [PDTC, pyrrolidindithiocarbamate]
NF-KB [3]
  activation of NF-KB binding activities: effectively suppressed
PKC
  interference with PMA induced membrane association and kinase activity of PKC: does not interfere
IkB-α [4]; PMA treated 7OZ/3 cells, 100 μM PDTC
  degradation of IkB-α protein (Western blot): no significant degradation

## IL-1β: inflammatory cytokine used as inducer of NF-KB
IkB-α [4]; 7OZ/3 cells
  decay of IkB-α: induced a decay

## C=C1[C@@H](O)[C@@H]2O[C@]3(CC[C@H](/C=C/[C@@H](C)[C@@H]4CC(C)=C[C@@]5(O[C@H](C[C@@](C)(O)C(=O)O)CC[C@H]5O)O4)O3)CC[C@H]2O[C@@H]1[C@@H](O)C[C@H](C)[C@H]1O[C@@]2(CCCCO2)CC[C@H]1C [okadaic acid]
IkB-α [1]; 100 nM, together with NBIG
  quicker migrating non-phosphorylated form of IkB-α: disappear completely

## TNF-α
IkB-α [1]; HeLa cells
  decay of IkB-α: induced a decay
  time after stimulation at which most of the IkB-α had decayed: ≤ 5 min
IL-8
  IL-8: 52 pg/mL
IL-6; 15'
  IL-6: 875 pg/mL
IL-6; 120'
  IL-6: 6750 pg/mL
